Measurements: US8415340B2, “Triazine kinase inhibitors” (Bristol-Myers Squibb Company, priority 2007, dated 2013)

What follows are compounds tested against IGF1-receptor (Homo sapiens, UniProt P08069) (assay: IGF1-Receptor Tyrosine Kinase Assay). Settings: in vitro kinase; ATP 25 μM; read-out: IGF1R kinase IC50.
Sequence of IGF1-receptor (P08069 31-1367): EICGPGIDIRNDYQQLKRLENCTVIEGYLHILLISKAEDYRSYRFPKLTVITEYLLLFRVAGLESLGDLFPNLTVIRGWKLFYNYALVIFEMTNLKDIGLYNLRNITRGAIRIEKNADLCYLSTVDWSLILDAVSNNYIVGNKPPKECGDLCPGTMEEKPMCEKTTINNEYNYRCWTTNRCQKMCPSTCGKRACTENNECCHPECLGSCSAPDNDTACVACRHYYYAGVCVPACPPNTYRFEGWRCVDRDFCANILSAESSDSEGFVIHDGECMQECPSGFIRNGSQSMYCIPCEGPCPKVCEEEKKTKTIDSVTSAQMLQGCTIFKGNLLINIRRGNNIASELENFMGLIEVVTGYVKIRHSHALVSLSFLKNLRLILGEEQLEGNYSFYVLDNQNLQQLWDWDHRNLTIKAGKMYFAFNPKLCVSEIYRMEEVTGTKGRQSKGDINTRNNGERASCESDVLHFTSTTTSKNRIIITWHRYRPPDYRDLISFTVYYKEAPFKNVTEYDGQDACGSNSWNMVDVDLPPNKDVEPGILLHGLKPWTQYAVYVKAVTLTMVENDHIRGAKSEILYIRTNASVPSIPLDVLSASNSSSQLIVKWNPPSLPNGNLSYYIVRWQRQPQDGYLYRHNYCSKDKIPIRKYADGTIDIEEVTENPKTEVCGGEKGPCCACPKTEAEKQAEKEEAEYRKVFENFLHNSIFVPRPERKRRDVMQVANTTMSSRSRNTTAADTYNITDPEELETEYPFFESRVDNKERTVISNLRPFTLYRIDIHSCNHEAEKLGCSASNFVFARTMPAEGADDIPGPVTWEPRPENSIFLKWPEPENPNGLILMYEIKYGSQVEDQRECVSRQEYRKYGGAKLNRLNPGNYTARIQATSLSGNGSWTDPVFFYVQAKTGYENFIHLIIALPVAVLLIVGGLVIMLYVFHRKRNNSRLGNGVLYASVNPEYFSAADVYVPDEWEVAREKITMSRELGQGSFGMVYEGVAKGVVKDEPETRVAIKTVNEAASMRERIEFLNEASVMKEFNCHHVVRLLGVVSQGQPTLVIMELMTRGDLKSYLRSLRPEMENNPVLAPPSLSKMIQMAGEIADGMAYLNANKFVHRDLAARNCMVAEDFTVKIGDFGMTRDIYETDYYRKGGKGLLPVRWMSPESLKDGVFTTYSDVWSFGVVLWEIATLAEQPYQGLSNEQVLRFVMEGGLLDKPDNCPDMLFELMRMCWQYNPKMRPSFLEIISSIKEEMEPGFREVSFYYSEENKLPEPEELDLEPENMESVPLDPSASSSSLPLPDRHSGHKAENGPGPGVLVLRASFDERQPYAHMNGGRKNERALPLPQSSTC
Assay type: biochemical
Method: D. IGF1-Receptor Tyrosine Kinase Assay
The assays were performed in U-bottom 384-well plates. The final assay volume was 30 μl prepared from 15 μl additions of enzyme and substrates (fluoresceinated IGF1R substrate peptide and ATP) and test compounds in assay buffer (100 mM HEPES pH 7.4, 10 mM MnCl2, 0.015% Brij35 and 4 mM DTT). The reaction was initiated by the combination of IGF1-receptor with substrates and test compounds. The reaction was incubated at room temperature for 60 min. and terminated by adding 30 μl of 35 mM EDTA to each sample. The reaction mixture was analyzed on the Caliper LabChip 3000 by electrophoretic separation of the fluorescent substrate and phosphorylated product. Inhibition data were calculated by comparison to no enzyme control reactions for 100% inhibition and vehicle-only reactions for 0% inhibition. The final concentration of reagents in the assays is ATP, 25 μM; FL-peptide, 1.5 μM; IGF1-Receptor, 14 nM; and DMSO, 1.6%. Dose response curves were generated to determine the concentration required inhibiting 50% of kinase activity (IC50). Compounds were dissolved at 10 mM in dimethylsulfoxide (DMSO) and evaluated at eleven concentrations, each in duplicate. IC50 values were derived by non-linear regression analysis.
`CN1CCN(c2nc(Nc3cc(C4CC4)[nH]n3)nc(N3C[C@@H](O)C[C@@]3(C)C(=O)Nc3nccs3)n2)CC1` [Example 102, (2S,4S)-1-(4-(5-Cyclopropyl-1H-pyrazol-3-ylamino)-6-(4-methylpiperazin-1-yl)-1,3,5-triazin-2-yl)-4-hydroxy-2-methyl-N-(thiazol-2-yl)pyrrolidine-2-carboxamide] showed an IC50 of 44 nM.
Compound `COCCN1CCN(c2nc(Nc3cc(C4CC4)[nH]n3)nc(N3C[C@@H](O)C[C@@]3(C)C(=O)Nc3nccs3)n2)CC1` [Example 103, (2S,4S)-1-(4-(5-Cyclopropyl-1H-pyrazol-3-ylamino)-6-(4-(2-methoxyethyl)piperazin-1-yl)-1,3,5-triazin-2-yl)-4-hydroxy-2-methyl-N-(thiazol-2-yl)pyrrolidine-2-carboxamide] has an IC50 of 108 nM.
`CN1CC2CC1CN2c1nc(Nc2cc(C3CC3)[nH]n2)nc(N2C[C@@H](O)C[C@@]2(C)C(=O)Nc2nccs2)n1` (stereo partly drawn) [Example 104, (2S,4S)-1-(4-(5-Cyclopropyl-1H-pyrazol-3-ylamino)-6-(5-methyl-2,5-diazabicyclo[2.2.1]heptan-2-yl)-1,3,5-triazin-2-yl)-4-hydroxy-2-methyl-N-(thiazol-2-yl)pyrrolidine-2-carboxamide] was tested, and the IC50 was 43 nM.
In the case of `Cc1cnc(NC(=O)[C@]2(C)C[C@H](O)CN2c2nc(Nc3cc(C4CC4)[nH]n3)nc(N3CCOCC3)n2)s1` [Example 105, (2S,4S)-1-(4-(5-Cyclopropyl-1H-pyrazol-3-ylamino)-6-morpholino-1,3,5-triazin-2-yl)-4-hydroxy-2-methyl-N-(5-methylthiazol-2-yl)pyrrolidine-2-carboxamide], the IC50 is reported as 89 nM.
Compound `CO[C@H]1C[C@@H](C(=O)N[C@@H]2CCCN(C)C2)N(c2nc(Nc3cc(C4CC4)[nH]n3)nc(N3CCOCC3)n2)C1` [Example 113, (2S,4S)-1-(4-(5-Cyclopropyl-1H-pyrazol-3-ylamino)-6-morpholino-1,3,5-triazin-2-yl)-4-methoxy-N—((R)-1-methylpiperidin-3-yl)pyrrolidine-2-carboxamide] has an IC50 of 7 nM.
Work on `CN1CCN(c2nc(Nc3cc(C4CC4)n[nH]3)nc(N3CC(F)(F)C[C@H]3C(=O)Nc3cnccn3)n2)CC1` [Example 117, (S)-1-(4-(3-Cyclopropyl-1H-pyrazol-5-ylamino)-6-(4-methylpiperazin-1-yl)-1,3,5-triazin-2-yl)-4,4-difluoro-N-(pyrazin-2-yl)pyrrolidine-2-carboxamide] yielded an IC50 of 7 nM.
In the case of `O=C(Nc1cnccn1)[C@@H]1CC(F)(F)CN1c1nc(Nc2cc(C3CC3)n[nH]2)nc(N2CCN(CCO)CC2)n1` [Example 119, (S)-1-(4-(3-Cyclopropyl-1H-pyrazol-5-ylamino)-6-(4-(2-hydroxyethyl)piperazin-1-yl)-1,3,5-triazin-2-yl)-4,4-difluoro-N-(pyrazin-2-yl)pyrrolidine-2-carboxamide], the IC50 is reported as 3 nM.
For `CN1CCN(c2nc(Nc3cc(C4CC4)n[nH]3)nc(N3[C@H](C(=O)Nc4cnccn4)C[C@@H]4C[C@@H]43)n2)CC1` [Example 122, (1S,3S,5S)-2-(4-(3-Cyclopropyl-1H-pyrazol-5-ylamino)-6-(4-methylpiperazin-1-yl)-1,3,5-triazin-2-yl)-N-(pyrazin-2-yl)-2-azabicyclo[3.1.0]hexane-3-carboxamide], the IC50 was 7 nM.

What follows are compounds tested on IGF1R-Sal tumors (assay: IGF-1R Sal Tumor Model). Settings: 3.13 mpk, orally, qd × 4 days, nude mice bearing IGF1R-Sal tumors.
Assay type: in vivo
Method: P. IGF-1R Sal Tumor Model
A salivary gland adenocarcinoma that developed spontaneously in a transgenic mouse (MCI-19) was excised and cut into fragments of about 20 mg. Tumor fragments were implanted s.c. into the ventral thoracic region of a group of six female, athymic BALB/c nu/nu mice (Harley Sprague-Dawley, Indianapolis, Ind.), using a 13-gauge trocar. Once established, the salivary gland-derived tumor line was designated IGF1R-Sal and was propagated as a tumor xenograft in nude mice. Tumors were passaged every 2 weeks, at which time the tumor reached f500 to 1,000 mm3 in size. For treatment studies, nude micebearing IGF1R-Sal tumors of about 100 mm3 in size were sorted into groups of five for treatment with vehicle (80% polyethylene glycol 400 in water) alone or the test article. Compounds were administered either on a bid schedule (oral doses 8 hours apart) or on a once a day schedule orally (qd) for 4 consecutive days. Tumors were measured at the start and end of treatment. Activity was measured as % tumor growth inhibition (% TGI). The % TGI was determined using the following formula (Ct−Tt)/(Ct−Co) where Ct is defined as the median tumor size of the control group at the end of treatment, Co is defined as the median tumor size of the control group at the start of treatment, and Tt is defined as the median tumor size of the treated group at the end of treatment.
For `CO[C@H]1C[C@@H](C(=O)Nc2cnccn2)N(c2nc(Nc3cc(C4CC4)n[nH]3)nc(N3CCOCC3)n2)C1` [Example 18, (2S,4S)-1-(4-(3-Cyclopropyl-1H-pyrazol-5-ylamino)-6-morpholino-1,3,5-triazin-2-yl)-4-methoxy-N-(pyrazin-2-yl)pyrrolidine-2-carboxamide], the “% TGI (3.13 mpk)” value was 96%.
With `O=C(Nc1cnccn1)[C@@H]1C[C@@H](F)CN1c1nc(Nc2cc(C3CC3)n[nH]2)nc(N2CCOCC2)n1` [Example 65, (2S,4R)-1-(4-(3-Cyclopropyl-1H-pyrazol-5-ylamino)-6-morpholino-1,3,5-triazin-2-yl)-4-fluoro-N-(pyrazin-2-yl)pyrrolidine-2-carboxamide] the “% TGI (3.13 mpk)” value was 80%.

Same assay, conditions: 6.25 mpk, orally, qd × 4 days, nude mice bearing IGF1R-Sal tumors
`CN1CCN(c2nc(Nc3cc(C4CC4)n[nH]3)nc(N3C[C@H](F)C[C@H]3C(=O)Nc3cnccn3)n2)CC1` [Example 68, (2S,4R)-1-(4-(3-Cyclopropyl-1H-pyrazol-5-ylamino)-6-(4-methylpiperazin-1-yl)-1,3,5-triazin-2-yl)-4-fluoro-N-(pyrazin-2-yl)pyrrolidine-2-carboxamide] was tested, and the “% TGI (6.25 mpk)” value was 7%.
With `O=C(Nc1cnccn1)[C@@H]1C[C@H](O)CN1c1nc(Nc2cc(C3CC3)n[nH]2)nc(N2CCOCC2)n1` [Example 85, (2S,4S)-1-(4-(3-Cyclopropyl-1H-pyrazol-5-ylamino)-6-morpholino-1,3,5-triazin-2-yl)-4-hydroxy-N-(pyrazin-2-yl)pyrrolidine-2-carboxamide] the “% TGI (6.25 mpk)” value was 49%.

Same assay, conditions: 50 mpk, orally, qd × 4 days, nude mice bearing IGF1R-Sal tumors
`CN1CCN(c2nc(Nc3cc(C4CC4)n[nH]3)nc(N3C[C@H](F)C[C@H]3C(=O)Nc3ncns3)n2)CC1` [Example 83, (2S,4R)-1-(4-(3-Cyclopropyl-1H-pyrazol-5-ylamino)-6-(4-methylpiperazin-1-yl)-1,3,5-triazin-2-yl)-4-fluoro-N-(1,2,4-thiadiazol-5-yl)pyrrolidine-2-carboxamide] was tested, and the “% TGI (50 mpk)” value was 27%.
For `COCCN1CCN(c2nc(Nc3cc(C4CC4)n[nH]3)nc(N3C[C@H](F)C[C@H]3C(=O)Nc3ncns3)n2)CC1` [Example 84, (2S,4R)-1-(4-(3-Cyclopropyl-1H-pyrazol-5-ylamino)-6-(4-(2-methoxyethyl)piperazin-1-yl)-1,3,5-triazin-2-yl)-4-fluoro-N-(1,2,4-thiadiazol-5-yl)pyrrolidine-2-carboxamide], the “% TGI (50 mpk)” value was 25%.
